Where two headings read alike, the source gives them in different places. Starred links: 1 amine or outer side, 2 acyl side, 3 side chain; linkers in the order of their positions; H or OH if unused. Non-standard residues stand in square brackets, D forms with d. Residues, ends and D or L forms follow the SMILES beside them. *: point of attachment. NOTA = O=C(O)CN1CCN(CC(=O)O)CCN(CC(=O)*)CC1; Sta = CC(C)C[C@H](N)[C@@H](O)CC(=O)O; X2 = O=C(COc1cccc(CN[*:1])c1)[*:2]; X3 = O=C(COc1ccccc1CN[*:1])[*:2]

The nature of series [1]: Complex stability of 68Ga-labeled peptides in PBS or EDTA solution in PBS (iTLC). The conditions noted are these: n = 3, mean ± sd; for remaining at 1 h, 1 µM: PBS buffer, pH 7.4, incubation at 37 °C for 1 h in PBS; for Stability in PBS with EDTA: incubation at 37 °C for 1 h in PBS with 1000-fold molar excess of EDTA, in % (unit assumed). It counts as physicochemical.
The nature of series [2]: Octanol-water distribution coefficient (LogD). It is filed as physicochemical. The conditions noted are these: n-octanol/PBS; n = 3; mean ± sd. On the procedure: Octanol-water distribution coefficient (LogD) was determined by adding 10 pmol of radiopeptide to an Eppendorf tube containing 500 µL of phosphate-buffered saline (PBS) and 500 µL of n-octanol. Each tube was vortexed for 2 min and centrifuged at 6000 g for 5 min. Three 100 µL fractions were collected from each phase, and their radioactivity was measured.

A short description of series [3]: Biodistribution in BALB/c nu/nu mice bearing PC-3 xenografts. It is filed as in vivo. The conditions noted are these: female, BALB/c nu/nu, mouse, iv, total radioactivity. On the procedure: Female BALB/c nu/nu mice of 18–22 g weight were used in the study. All procedures with animals were conducted in accordance with the EU Directive 2010/63/EU for animal experiments and Swedish national legislation concerning the protection of laboratory animals. The experiments were approved by the ethics committee for animal research in Uppsala (Sweden) with permit number 5.8.18–00473/2021. Animals were housed in individually ventilated cages, under a 12-h light/dark cycle with free access to food and water.
For tumor inoculation, 8·10^6 PC-3 cells in 100 µL PBS were injected subcutaneously into the right hind leg of mice. Mouse weight and tumor size were measured every 2–3 days, and tumor volume was estimated by ellipsoid approximation. A predefined humane endpoint of the experiment was either a 15% weight loss or a tumor volume of 1000 mm^3, neither of which was reached.
Four weeks after tumor cell implantation, mice were randomized and divided into 6 groups (4 animals / group): 3 of them received treatment with ^68Ga-radiolabeled peptides, while the other 3 received the same peptides in addition to 5 nmol of non-labeled NOTA-PEG2-RM26 peptide for GRPR-blocking. Peptides were injected intravenously via the tail veins at a dose of 50 pmol (700 kBq radioactivity dose).
At 2 h post injection, mice were sacrificed by overdose of Ketamine/Xylazine anesthesia, and blood was collected by heart puncture. Then, liver, spleen, lungs, pancreas, kidneys, small intestine, stomach, tail, femur bones, tumor and muscle from the opposite legs were collected, weighed, and radioactivity was measured using a Wizard 2480 gamma counter. Data are presented as percentages of injected activity per gram of tissue (%IA/g).

Details of series [4]: method as in PMID 25684649. The following applies: same time point (2 h), 40 pmol; cited from earlier work.
[5] abbreviates: blood, 50 pmol, 2 h p.i., i.v., read-out: Radionuclide concentration, Blood.
[6] abbreviates: blood, Blockade (co-injection of NOTA-PEG2-RM26), 2 h, read-out: Radionuclide concentration, Blood.
Setting [7] is: bone, 50 pmol, 2 h p.i., i.v., read-out: Radionuclide concentration, Bone.
The mark [8] stands for this setting: bone, Blockade (co-injection of NOTA-PEG2-RM26), 2 h, read-out: Radionuclide concentration, Bone.
Where [9] appears, read: carcass, 50 pmol, 2 h p.i., i.v., read-out: Radionuclide quantity, Carcass.
Setting [10] is: carcass, Blockade (co-injection of NOTA-PEG2-RM26), 2 h, read-out: Radionuclide quantity, Carcass.
[11] abbreviates: gastrointestinal tract, 50 pmol, 2 h p.i., i.v., read-out: Radionuclide quantity, Gastrointestinal tract.
Where [12] appears, read: gastrointestinal tract, Blockade (co-injection of NOTA-PEG2-RM26), 2 h, read-out: Radionuclide quantity, Gastrointestinal tract.
Setting [13] is: kidneys, 50 pmol, 2 h p.i., i.v., read-out: Radionuclide concentration, Kidneys.
Where [14] appears, read: kidneys, Blockade (co-injection of NOTA-PEG2-RM26), 2 h, read-out: Radionuclide concentration, Kidneys.
Setting [15] is: liver, 50 pmol, 2 h p.i., i.v., read-out: Radionuclide concentration, Liver.
Where [16] appears, read: liver, Blockade (co-injection of NOTA-PEG2-RM26), 2 h, read-out: Radionuclide concentration, Liver.
Where [17] appears, read: lungs, 50 pmol, 2 h p.i., i.v., read-out: Radionuclide concentration, Lungs.
[18] abbreviates: lungs, Blockade (co-injection of NOTA-PEG2-RM26), 2 h, read-out: Radionuclide concentration, Lungs.
The mark [19] stands for this setting: muscle, 50 pmol, 2 h p.i., i.v., read-out: Radionuclide concentration, Muscle.
Setting [20] is: muscle, Blockade (co-injection of NOTA-PEG2-RM26), 2 h, read-out: Radionuclide concentration, Muscle.
Where [21] appears, read: pancreas, 50 pmol, 2 h p.i., i.v., read-out: Radionuclide concentration, Pancreas.
The mark [22] stands for this setting: pancreas, Blockade (co-injection of NOTA-PEG2-RM26), 2 h, read-out: Radionuclide concentration, Pancreas.
Setting [23] is: small intestine, 50 pmol, 2 h p.i., i.v., read-out: Radionuclide concentration, Small Intestines.
Setting [24] is: small intestine, Blockade (co-injection of NOTA-PEG2-RM26), 2 h, read-out: Radionuclide concentration, Small Intestines.
[25] abbreviates: spleen, 50 pmol, 2 h p.i., i.v., read-out: Radionuclide concentration, Spleen.
[26] abbreviates: spleen, Blockade (co-injection of NOTA-PEG2-RM26), 2 h, read-out: Radionuclide concentration, Spleen.
Setting [27] is: stomach, 50 pmol, 2 h p.i., i.v., read-out: Radionuclide concentration, Stomach.
Setting [28] is: stomach, Blockade (co-injection of NOTA-PEG2-RM26), 2 h, read-out: Radionuclide concentration, Stomach.
[29] abbreviates: total (sum of the measured activities), 50 pmol, 2 h p.i., i.v., sum of the measured activities, read-out: Radionuclide quantity, Total.
Where [30] appears, read: total, Blockade (co-injection of NOTA-PEG2-RM26), 2 h, read-out: Radionuclide quantity, Total.
[31] abbreviates: tumor (PC-3 xenograft), 50 pmol, 2 h p.i., i.v., PC-3 xenograft, read-out: Radionuclide concentration, Tumor.
Setting [32] is: tumor (PC-3 xenograft), Blockade (co-injection of NOTA-PEG2-RM26), 2 h, read-out: Radionuclide concentration, Tumor.

On to `CC(=O)N[C@@H](CCCCNC(=O)CN1CCN(CC(=O)O)CCN(CC(=O)O)CC1)C(=O)NCc1ccccc1OCC(=O)N[C@H](Cc1ccccc1)C(=O)N[C@@H](CCC(N)=O)C(=O)N[C@@H](Cc1c[nH]c2ccccc12)C(=O)N[C@@H](C)C(=O)N[C@H](C(=O)NCC(=O)N[C@@H](Cc1c[nH]cn1)C(=O)N[C@@H](CC(C)C)[C@@H](O)CC(=O)N[C@@H](CC(C)C)C(N)=O)C(C)C` [[^68Ga]Ga-NOTA-oMA-RM26, metal not drawn] (Ac-K(NOTA)[X3][dF]QWAVGH[Sta]L-NH2), for which, in series [1], the fraction remaining (commonly what is left of the initial amount, in per cent) at 1 h, 1 µM amounted to 91.7 ± 5.1%. The “Stability in PBS with EDTA” value in series [1] turned out to be 91.3 ± 5.2. Further, the logD – broadly, lipophilicity at a set pH, counting ionised and neutral species – in series [2] was -0.86 ± 0.02. In addition, the tissue uptake at 2 h in series [3] (setting [5]) is 0.47 ± 0.17 %ID/g; in series [3] (setting [6]), 0.22 ± 0.08 %ID/g; in series [3] (setting [7]) it was 0.34 ± 0.05 %ID/g; in series [3] (setting [8]) it was 0.23 ± 0.03 %ID/g; in series [3] (setting [13]), 6.3 ± 0.9 %ID/g; in series [3] (setting [14]), 6.2 ± 1.3 %ID/g. Moreover, the tissue uptake at 2 h in series [3] (setting [15]) was 3.5 ± 0.5 %ID/g; in series [3] (setting [16]) it was 1.4 ± 0.4 %ID/g; in series [3] (setting [17]) it was 5.7 ± 1.5 %ID/g; in series [3] (setting [18]) it was 3.5 ± 2.2 %ID/g; in series [3] (setting [19]), 0.16 ± 0.05 %ID/g; in series [3] (setting [20]), 0.21 ± 0.09 %ID/g. In addition, the tissue uptake at 2 h was determined as 21 ± 5.2 %ID/g in series [3] (setting [21]); 2.5 ± 0.6 %ID/g in series [3] (setting [22]); 3.4 ± 1.3 %ID/g in series [3] (setting [23]); 0.61 ± 0.13 %ID/g in series [3] (setting [24]); 1.2 ± 0.3 %ID/g in series [3] (setting [25]); 0.37 ± 0.08 %ID/g in series [3] (setting [26]). Also, the tissue uptake at 2 h in series [3] (setting [27]) came out at 3.5 ± 0.7 %ID/g; in series [3] (setting [28]), 1.1 ± 0.7 %ID/g; in series [3] (setting [31]), 10.2 ± 2.7 %ID/g; in series [3] (setting [32]), 1 ± 0.4 %ID/g. In addition, the tissue uptake dose at 2 h came to 2.9 ± 0.4 %ID in series [3] (setting [9]); 5.9 ± 2.7 %ID in series [3] (setting [10]); 6.5 ± 0.7 %ID in series [3] (setting [11]); 4.1 ± 2.1 %ID in series [3] (setting [12]); 19.8 ± 2.6 %ID in series [3] (setting [29]); 15.7 ± 2.9 %ID in series [3] (setting [30]).

With `CC(=O)N[C@@H](CCCCNC(=O)CN1CCN(CC(=O)O)CCN(CC(=O)O)CC1)C(=O)NCc1cccc(OCC(=O)N[C@H](Cc2ccccc2)C(=O)N[C@@H](CCC(N)=O)C(=O)N[C@@H](Cc2c[nH]c3ccccc23)C(=O)N[C@@H](C)C(=O)N[C@H](C(=O)NCC(=O)N[C@@H](Cc2c[nH]cn2)C(=O)N[C@@H](CC(C)C)[C@@H](O)CC(=O)N[C@@H](CC(C)C)C(N)=O)C(C)C)c1` [[^68Ga]Ga-NOTA-mMA-RM26, metal not drawn] (Ac-K(NOTA)[X2][dF]QWAVGH[Sta]L-NH2), the amount remaining at 1 h, 1 µM in series [1] was 92.8 ± 3.3%. Also, the “Stability in PBS with EDTA” value in series [1] is 90.6 ± 4.1. Further, the log distribution coefficient (logD) in series [2] was -1.21 ± 0.03. Further, the tissue uptake at 2 h was 0.39 ± 0.08 %ID/g in series [3] (setting [5]); 0.42 ± 0.21 %ID/g in series [3] (setting [6]); 0.28 ± 0.06 %ID/g in series [3] (setting [7]); 0.25 ± 0.03 %ID/g in series [3] (setting [8]); 8.4 ± 1.4 %ID/g in series [3] (setting [13]); 7.6 ± 0.7 %ID/g in series [3] (setting [14]). For the same compound, the tissue uptake at 2 h in series [3] (setting [15]) worked out at 3.7 ± 1.4 %ID/g; in series [3] (setting [16]) it was 2.2 ± 0.5 %ID/g; in series [3] (setting [17]), 7.1 ± 4.2 %ID/g; in series [3] (setting [18]), 3.4 ± 0.5 %ID/g; in series [3] (setting [19]), 0.12 ± 0.02 %ID/g; in series [3] (setting [20]) it was 0.12 ± 0.05 %ID/g. In addition, the tissue uptake at 2 h in series [3] (setting [21]) is 10.5 ± 3.8 %ID/g; in series [3] (setting [22]) it was 1.7 ± 0.9 %ID/g; in series [3] (setting [23]), 1.7 ± 0.7 %ID/g; in series [3] (setting [24]), 0.91 ± 0.48 %ID/g; in series [3] (setting [25]), 1.1 ± 0.4 %ID/g; in series [3] (setting [26]) it was 1.1 ± 0.8 %ID/g. Also, the tissue uptake at 2 h amounted to 2.5 ± 0.6 %ID/g in series [3] (setting [27]), 0.77 ± 0.51 %ID/g in series [3] (setting [28]), 12.3 ± 2.8 %ID/g in series [3] (setting [31]) and 1.8 ± 0.2 %ID/g in series [3] (setting [32]). In addition, the tissue uptake dose at 2 h in series [3] (setting [9]) was determined as 2.8 ± 0.4 %ID; in series [3] (setting [10]), 4.6 ± 0.7 %ID; in series [3] (setting [11]), 4 ± 0.4 %ID; in series [3] (setting [12]), 3.1 ± 1.7 %ID; in series [3] (setting [29]) it was 16.5 ± 3.1 %ID; in series [3] (setting [30]), 12.6 ± 2 %ID.

Regarding `CC(C)C[C@H](NC(=O)C[C@H](O)[C@H](CC(C)C)NC(=O)[C@H](Cc1c[nH]cn1)NC(=O)CNC(=O)[C@@H](NC(=O)[C@H](C)NC(=O)[C@H](Cc1c[nH]c2ccccc12)NC(=O)[C@H](CCC(N)=O)NC(=O)[C@@H](Cc1ccccc1)NC(=O)COCCOCCNC(=O)CN1CCN(CC(=O)O)CCN(CC(=O)O)CC1)C(C)C)C(N)=O` [[^68Ga]Ga-NOTA-PEG2-RM26, metal not drawn], in series [4], the “accumulation in the kidneys” value is 1.9 ± 0.3 %IA/g; the “accumulation in the liver” value was 1 ± 0.1 %IA/g; the “accumulation in the lungs” value is recorded as 0.17 ± 0.03 %IA/g; the “tissue uptake, pancreas” value is on record as 1.9 ± 0.1 %IA/g. In series [4], the “tissue uptake, small intestine” value is 0.6 ± 0.1 %IA/g; the “tissue uptake, stomach” value is recorded as 1.4 ± 0.2 %IA/g; the “tissue uptake, tumor” value was 5.4 ± 1 %IA/g. In addition, the log distribution coefficient (logD) in series [2] was -1.43 ± 0.01.

These data come from article PMC12332157, “A preclinical study on the influence of linkers in [^68Ga]Ga-NOTA-X-RM26 radiotracers for PET imaging of GRPR expression” (EJNMMI Research, 2025).
